≈ marks a conversion by molar mass, not a printed value. Read-outs that look alike come from different tables or passages of the source.
Legend:
soybean rust [1] = assay: Cooperative tests of fungicides (Embrapa Soybean): soybean rust control over crops, FIGS. 1-6; format: in vivo, Phakopsora pachyrhizi; details: from regression equation over crops; starting crop differs per fungicide
Source text: An example that reinforces the reported fact is the gradual reduction of tebuconazole control over the crops using it covering the period beginning in 2004/05 to 2013/14 (as FIG. 1).
The results of cooperative tests of fungicides, coordinated by Embrapa Soybean, Londrina, can bring the answer to these questions. The following graphs of FIGS. 2, 3, 4 and 5 show the reduction of rust control by fungicide mixtures traditionally used in soybeans over the past crops.
FIG. 1. Reduced soybean rust control by tebuconazole over […]. (Source: Cooperative tests of fungicides).
FIG. 2. Control Reduction of soybean rust by cyproconazole+azoxystrobin mixture over six crops. (Source: Cooperative tests of fungicides).
FIG. 3. Control Reduction of soybean rust by cyproconazole+picoxystrobin mixture over six crops. (Source: Cooperative tests of fungicides).
FIG. 4. Reduction control of soybean rust by epoxiconazole+pyraclostrobin mixture over six crops. (Source: Cooperative tests of fungicides).
FIG. 5. Average reduction of soybean rust control by mixtures of cyproconazole+azoxystrobin, cyproconazole+picoxystrobin and epoxiconazole+pyraclostrobin over six crops. (Source: Cooperative tests of fungicides).
FIG. 6. Control Reduction of soybean rust for azoxystrobin over six crops. (Source: Cooperative tests of fungicides).

Drechsiera siccans = assay: 50% inhibition of mycelium growth (IC50), five isolates, DMI fungicides; format: cell-based
Procedure: In the 2003 wheat crop for the first time, there was complaint of leaf spot control failure after continuous use of fungicides DMI+QoI, for 20 years. Until that time there were few reports of the sensitivity of the fungus that is causal agent of yellow spot to fungicides (Stoke, 2006; Tonin, 2009; Beard et al, 2009; Patel et al, 2012). The reference concentrations of sensitivity of Dtr to fungicides found in the literature were 0.17 mg/L in average for the epoxiconazole, propiconazole and tebuconazole. […] Comparing these values with the sensitivity of isolates of Brazil proves the reduced sensitivity occurring here (see Table 3).
Average of two experiments.

soybean rust [2] = tested on: soybean rust; parameters: Control of soybean rust, crop 2005/06 / Control of soybean rust, crop 2012/13: concentration or dose not given beside the values; details: cited from earlier work; for Reduction (%) of control: 2005/06 versus 2012/13 crop; for Control of soybean rust, crop 2005/06 / Control of soybean rust, crop 2012/13: applied preventively; for Control of soybean rust, crop 2005/06: 2005/06 crop; for Control of soybean rust, crop 2012/13: 2012/13 crop
soybean rust [3] = details: crop 2010/11, cited from earlier work; for Control (%): evaluated by AUDPC; for Severity (%): untreated control 74.0
[4] = tested on: Dtr (Drechsiera tritici-repentis); details: literature value, cited from earlier work
[5] = tested on: Drechsiera tritici-repentis; assay: 50% inhibition of spore germination (CI50), five isolates, strobilurin fungicides; format: cell-based; details: for Reduction factor of the sensitivity, isolate 01/QTZ: CI50 of sensitivity reference 0.75 mg/L; for Reduction factor of the sensitivity, Average / Reduction factor of the sensitivity, isolate 02/ONX / Reduction factor of the sensitivity, isolate 03/HZT / Reduction factor of the sensitivity, isolate 04/GUA / Reduction factor of the sensitivity, isolate 05/CD: reference 0.75 mg/L
Procedure: However, the highest reduction of sensitivity of the Dtr to fungicides and what better explains the control failure claimed by producers is the CI50 obtained for QoIs fungicides (see Table 4).
Lowercase compare average in the column and capital letters in the line. Average of two experiments.
Taking as Cl50 standard of sensitivity, 0.75 mg/L (Table 4) obtained for pyraclostrobin, it is calculated the reduction factor of the sensitivity of the Dtr to QoIs fungicides (see Table 5).
Cl50 of sensitivity reference of 0.75 mg/L.
When the SRF is close to 1.0 there is no reduction of sensitivity. However, if >1 with different magnitude, it indicates reduced sensitivity of fungi to fungicides. In this case SRF ranged from 1.04 to >53 (see Table 5).

soybean rust [6] = details: 2013/14 crop; cited from earlier work
[7] = average of five isolates, read-out: IC50 Average
[8] = isolate 01/F30, average of two experiments, read-out: IC50 isolate 01/F30
[9] = isolate 02/RZ, read-out: IC50 isolate 02/RZ
[10] = isolate 03/SF, read-out: IC50 isolate 03/SF
[11] = isolate 04/F52, read-out: IC50 isolate 04/F52
[12] = isolate 05/VQ, read-out: IC50 isolate 05/VQ
[13] = spore germination, average of five isolates
[14] = spore germination, isolate 01/QTZ, average of two experiments
[15] = spore germination, isolate 02/ONX
[16] = spore germination, isolate 03/HZT
[17] = spore germination, isolate 04/GUA
[18] = spore germination, average of five isolates, read-out: CI50 Average
[19] = spore germination, isolate 01/QTZ, average of two experiments, read-out: CI50 isolate 01/QTZ
[20] = spore germination, isolate 02/ONX, read-out: CI50 isolate 02/ONX
[21] = spore germination, isolate 03/HZT, read-out: CI50 isolate 03/HZT
[22] = spore germination, isolate 04/GUA, read-out: CI50 isolate 04/GUA

CC(C)(C)C(O)(CCc1ccc(Cl)cc1)Cn1cncn1 (stereo not drawn) [Tebuconazole]
Control efficiency reduced per year (soybean rust [1]): 7.2 % per year
IC50 (Drechsiera siccans; [7]): 0.57 µg/mL (≈ 1.85 µM)
IC50 (Drechsiera siccans; [8]): 0.66 µg/mL (≈ 2.14 µM)
IC50 (Drechsiera siccans; [9]): 0.49 µg/mL (≈ 1.59 µM)
IC50 (Drechsiera siccans; [10]): 0.65 µg/mL (≈ 2.11 µM)
IC50 (Drechsiera siccans; [11]): 0.61 µg/mL (≈ 1.98 µM)
IC50 (Drechsiera siccans; [12]): 0.44 µg/mL (≈ 1.43 µM)
Reduction (%) of control (soybean rust [2]): 32.8%
Control of soybean rust, crop 2005/06 (soybean rust [2]): 95.0%
Control of soybean rust, crop 2012/13 (soybean rust [2]): 64.0%
Control (%) (soybean rust [3]): 42%
Severity (%) (soybean rust [3]): 49.9%
IC50 (Beard et al) [4]: 0.25 µg/mL (≈ 0.812 µM)
IC50 (Hunger & Brown) [4]: 0.19 µg/mL (≈ 0.617 µM)

CO/C=C(/C(=O)OC)c1ccccc1Oc1cc(Oc2ccccc2C#N)ncn1 [Azoxystrobin]
Control efficiency reduced per year (soybean rust [1]): 13.8 % per year
Reduction factor of the sensitivity, isolate 01/QTZ ([5]; isolate 01/QTZ): A > 53 a
Reduction factor of the sensitivity, Average ([5]; average of five isolates): >53 a
Reduction factor of the sensitivity, isolate 02/ONX ([5]; isolate 02/ONX): A > 53 a
Reduction factor of the sensitivity, isolate 03/HZT ([5]; isolate 03/HZT): A > 53 a
Reduction factor of the sensitivity, isolate 04/GUA ([5]; isolate 04/GUA): A > 53 a
Reduction factor of the sensitivity, isolate 05/CD [5]: A > 53 a
CI50 Average [5, 13]: A > 40 a ^ mg/L
CI50 isolate 01/QTZ [5, 14]: A > 40 a mg/L
CI50 isolate 02/ONX [5, 15]: A > 40 a mg/L
CI50 isolate 03/HZT [5, 16]: A > 40 a mg/L
CI50 isolate 04/GUA [5, 17]: A > 40 a mg/L
CI50 isolate 05/CD ([5]; spore germination): A > 40 a mg/L
Control of soybean rust in the 2013/14 (last) crop (soybean rust [6]): 16%

CON=C(C(=O)OC)c1ccccc1CON=C(C)c1cccc(C(F)(F)F)c1 [Trifloxystrobin]
Reduction factor of the sensitivity, isolate 01/QTZ ([5]; isolate 01/QTZ): A > 53 a
Reduction factor of the sensitivity, Average ([5]; average of five isolates): >53 a
Reduction factor of the sensitivity, isolate 02/ONX ([5]; isolate 02/ONX): A > 53 a
Reduction factor of the sensitivity, isolate 03/HZT ([5]; isolate 03/HZT): A > 53 a
Reduction factor of the sensitivity, isolate 04/GUA ([5]; isolate 04/GUA): A > 53 a
Reduction factor of the sensitivity, isolate 05/CD [5]: A > 53 a
IC50 [5, 18]: > 40 µg/mL
IC50 [5, 19]: > 40 µg/mL
IC50 [5, 20]: > 40 µg/mL
IC50 [5, 21]: > 40 µg/mL
IC50 [5, 22]: > 40 µg/mL

COC(=O)N(OC)c1ccccc1COc1ccn(-c2ccc(Cl)cc2)n1 [Pyraclostrobin]
Reduction factor of the sensitivity, isolate 01/QTZ ([5]; isolate 01/QTZ): D 1.0 b
IC50 ([5]; read-out: CI50 isolate 05/CD): 1.03 µg/mL (≈ 2.66 µM)
Reduction factor of the sensitivity, isolate 02/ONX ([5]; isolate 02/ONX): B 1.13 b
Reduction factor of the sensitivity, isolate 03/HZT ([5]; isolate 03/HZT): C 1.04 b
Reduction factor of the sensitivity, isolate 04/GUA ([5]; isolate 04/GUA): E 0.77 b
Reduction factor of the sensitivity, isolate 05/CD [5]: A 1.37 b
IC50 [5, 18]: 0.8 µg/mL (≈ 2.06 µM)
IC50 [5, 19]: 0.75 µg/mL (≈ 1.93 µM)
IC50 [5, 20]: 0.85 µg/mL (≈ 2.19 µM)
IC50 [5, 21]: 0.78 µg/mL (≈ 2.01 µM)
IC50 [5, 22]: 0.58 µg/mL (≈ 1.5 µM)
IC50 ([5]; taken from Table 4 as sensitivity reference, read-out: CI50 standard of sensitivity): 0.75 µg/mL (≈ 1.93 µM)

CO/N=C(/C(=O)OC)c1ccccc1COc1ccccc1C [Kresoxim methyl]
Reduction factor of the sensitivity, isolate 01/QTZ ([5]; isolate 01/QTZ): A > 53 a
Reduction factor of the sensitivity, Average ([5]; average of five isolates): >53 a
Reduction factor of the sensitivity, isolate 02/ONX ([5]; isolate 02/ONX): A > 53 a
Reduction factor of the sensitivity, isolate 03/HZT ([5]; isolate 03/HZT): A > 53 a
Reduction factor of the sensitivity, isolate 04/GUA ([5]; isolate 04/GUA): A > 53 a
Reduction factor of the sensitivity, isolate 05/CD [5]: A > 53 a
IC50 [5, 18]: > 40 µg/mL
IC50 [5, 19]: > 40 µg/mL
IC50 [5, 20]: > 40 µg/mL
IC50 [5, 21]: > 40 µg/mL
IC50 [5, 22]: > 40 µg/mL

CO/C=C(/C(=O)OC)c1ccccc1COc1cccc(C(F)(F)F)n1 [Picoxystrobin]
Reduction factor of the sensitivity, isolate 01/QTZ ([5]; isolate 01/QTZ): A > 53a
Reduction factor of the sensitivity, Average ([5]; average of five isolates): >53 a
Reduction factor of the sensitivity, isolate 02/ONX ([5]; isolate 02/ONX): A > 53 a
Reduction factor of the sensitivity, isolate 03/HZT ([5]; isolate 03/HZT): A > 53 a
Reduction factor of the sensitivity, isolate 04/GUA ([5]; isolate 04/GUA): A > 53 a
Reduction factor of the sensitivity, isolate 05/CD [5]: A > 53 a
CI50 Average [5, 13]: >40 a mg/L
CI50 isolate 01/QTZ [5, 14]: A > 40 a mg/L
CI50 isolate 02/ONX [5, 15]: A > 40 a mg/L
CI50 isolate 03/HZT [5, 16]: A > 40 a mg/L
CI50 isolate 04/GUA [5, 17]: A > 40 a mg/L
CI50 isolate 05/CD ([5]; spore germination): A > 40 a mg/L

OC(Cc1ccccc1Cl)(Cn1nc[nH]c1=S)C1(Cl)CC1 (stereo not drawn) [Prothioconazole]
IC50 (Drechsiera siccans; [7]): 0.21 µg/mL (≈ 0.61 µM)
IC50 (Drechsiera siccans; [8]): 0.22 µg/mL (≈ 0.639 µM)
IC50 (Drechsiera siccans; [9]): < 0.1 µg/mL
IC50 (Drechsiera siccans; [10]): 0.26 µg/mL (≈ 0.755 µM)
IC50 (Drechsiera siccans; [11]): 0.25 µg/mL (≈ 0.726 µM)
IC50 (Drechsiera siccans; [12]): 0.14 µg/mL (≈ 0.407 µM)

CCCC1COC(Cn2cncn2)(c2ccc(Cl)cc2Cl)O1 (stereo not drawn) [Propiconazole]
IC50 (Drechsiera siccans; [7]): 0.34 µg/mL (≈ 0.993 µM)
IC50 (Drechsiera siccans; [8]): 0.32 µg/mL (≈ 0.935 µM)
IC50 (Drechsiera siccans; [9]): 0.51 µg/mL (≈ 1.49 µM)
IC50 (Drechsiera siccans; [10]): 0.3 µg/mL (≈ 0.877 µM)
IC50 (Drechsiera siccans; [11]): 0.3 µg/mL (≈ 0.877 µM)
IC50 (Drechsiera siccans; [12]): 0.3 µg/mL (≈ 0.877 µM)
IC50 (Hunger & Brown) [4]: 0.04 µg/mL (≈ 0.117 µM)

Fc1ccc([C@]2(Cn3cncn3)O[C@H]2c2ccccc2Cl)cc1 (racemic) [Epoxiconazole]
IC50 (Drechsiera siccans; [7]): 0.33 µg/mL (≈ 1 µM)
IC50 (Drechsiera siccans; [8]): 0.28 µg/mL (≈ 0.849 µM)
IC50 (Drechsiera siccans; [9]): 0.28 µg/mL (≈ 0.849 µM)
IC50 (Drechsiera siccans; [10]): 0.4 µg/mL (≈ 1.21 µM)
IC50 (Drechsiera siccans; [11]): 0.32 µg/mL (≈ 0.97 µM)
IC50 (Drechsiera siccans; [12]): 0.4 µg/mL (≈ 1.21 µM)
Reduction (%) of control (soybean rust [2]): 50.0%
Control of soybean rust, crop 2005/06 (soybean rust [2]): 80.0%
Control of soybean rust, crop 2012/13 (soybean rust [2]): 40.0%
IC50 (Beard et al) [4]: 0.19 µg/mL (≈ 0.576 µM)

CC(C1CC1)C(O)(Cn1cncn1)c1ccc(Cl)cc1 (stereo not drawn) [Cyproconazole]
IC50 (Drechsiera siccans; [7]): 0.37 µg/mL (≈ 1.27 µM)
IC50 (Drechsiera siccans; [8]): 0.36 µg/mL (≈ 1.23 µM)
IC50 (Drechsiera siccans; [9]): 0.47 µg/mL (≈ 1.61 µM)
IC50 (Drechsiera siccans; [10]): 0.32 µg/mL (≈ 1.1 µM)
IC50 (Drechsiera siccans; [11]): 0.44 µg/mL (≈ 1.51 µM)
IC50 (Drechsiera siccans; [12]): 0.29 µg/mL (≈ 0.994 µM)
Reduction (%) of control (soybean rust [2]): 45.9%
Control of soybean rust, crop 2005/06 (soybean rust [2]): 96.0%
Control of soybean rust, crop 2012/13 (soybean rust [2]): 52.0%
Control (%) (soybean rust [3]): 38%
Severity (%) (soybean rust [3]): 58.1%
